Test results: ChEMBL document CHEMBL1201862, “PubChem BioAssay data set” (2004)
The source made the active and inactive calls. Rule as the data show it, for most assays here: actives have a measured EC50 and inactives only a lower limit.

Tests used:
H4 = experiment: Luminescence Cell-Based Dose Response HTS to Identify Activators of 5'UTR Stem-Loop Driven Prion Protein mRNA Translation in H4 Neuroglioblastoma Cells. [Related pubchem assays: 1829 (Project Summary), 1814 (Primary HTS)]; assay type: functional; conditions: Homo sapiens
[1] = Luminescence Cell-Based Dose Response HTS to Identify Activators of Luciferase Translation or Activity in H4 […] Cells. [Related pubchem assays: 1829 (Project Summary), 1814 (Primary HTS)]; assay type: functional
[2] = Luminescence Cell-Based Dose Confirmation HTS to Identify Activators of 5'UTR Stem-Loop Driven Alpha-Synuclein mRNA Translation in H4 Neuroglioblastoma Cells. [Related pubchem assays: 1829 (Project Summary), 1814 (Primary HTS)]; assay type: functional
[3] = NIH-3T3 fibroblast cytotoxicity, dose response, cytotoxicity control, cell-based, fluorescence, Alamar Blue, secondary assay (AID 2327); assay type: functional;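 also: NIH-3T3 mouse fibroblasts cultured with fluconazole at 8 µg/mL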
[4] = NIH3T3 cell viability loss – ATP luminescence, mouse fibroblasts, counter-screen, dose response (AID 2010); assay type: functional, cell-based;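 also: cells exposed to compound for about 90 hours before reading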
[5] = Trypanosoma cruzi growth suppression in host cells – NIH3T3 host cells, beta-gal luminescence, confirmation (AID 2044); assay type: functional, cell-based;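 also: intracellular parasites grown in NIH/3T3 mouse fibroblasts as host cells; luminescent beta-galactosidase reporter signal from transgenic T. cruzi replicating inside host cells; inhibitors lower the luminescence signal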
[6] = fluconazole-exposed Candida albicans growth modulators – fluorescence, retest, confirmation (AID 2467); assay type: functional, cell-based
[7] = viability of uninfected HEp-2 cells – cell-based, HTS, cytotoxicity control for RSV inhibitor project, dose response (AID 2410); assay type: functional; conditions: human respiratory syncytial virus
[8] = viability of PTEN-deleted HCT116 cells – cell-based, HCT116 PTEN knockout, dose response (AID 1047); assay type: functional;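 also: HCT116 colon tumor cells with PTEN knocked out; cells exposed to compound for 60 hours before readout; potency for loss of cell viability measured by luminescence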
cells = assay type: functional
[9] = non-specific 3'UTR reporter inhibition in Clone20-Shn3RL – cell-based, Renilla luciferase, cherry-picked, counter-screen for Shn3 inhibitor project, dose response (AID 624133); assay type: functional
[10] = reduction of Shn3 3'UTR-driven luciferase in osteoblasts – cell-based, Clone20 osteoblasts, firefly luciferase, cherry-picked, dose response (AID 624132); assay type: functional;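 also: firefly luciferase luminescence from reporter carrying the Shn3 3'UTR in osteoblasts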
[11] = loss of viability in HepG2 cells – cell-based, CellTiter-Glo, cherry-picked, cytotoxicity control for Shn3 inhibitor project, dose response (AID 624134); assay type: functional
BJ [12] = experiment: BJ-TERT-LT-ST fibroblast viability loss – cell-based, RAS-independent, luminescence, dose response (AID 1935); assay type: functional; conditions: Homo sapiens;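 also: BJ fibroblasts immortalized with TERT plus LT and ST oncogenes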
BJ [13] = experiment: BJ-TERT fibroblast viability loss – cell-based, RAS-independent, luminescence, dose response (AID 1933); assay type: functional; conditions: Homo sapiens
[14] = DRD fibroblast viability loss – cell-based, non-viral oncogenic, luminescence, dose response (AID 1934); assay type: functional; conditions: Homo sapiens
BJ [15] = experiment: cells; assay type: functional, cell-based; conditions: Homo sapiens
Paired box protein Pax-8 = Paired box protein Pax-8 (Homo sapiens, UniProt Q06710); experiment: PAX8 transcriptional activity inhibition in RMG-I – RMG-I cells, luciferase, cherry-pick, dose response (AID 687027); assay type: functional, cell-based;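 also: luciferase reporter driven by Pax8 target thyroperoxidase promoter measured by SteadyGlo luminescence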
[16] = biological target: T1, Calpain-2 catalytic subunit (Sus scrofa, UniProt P43367); experiment: m-calpain protease blockers, concentration series – biochemical, fluorogenic peptide substrate, dose response (AID 1420); assay type: functional
T1 sequence (P43367 whole entry): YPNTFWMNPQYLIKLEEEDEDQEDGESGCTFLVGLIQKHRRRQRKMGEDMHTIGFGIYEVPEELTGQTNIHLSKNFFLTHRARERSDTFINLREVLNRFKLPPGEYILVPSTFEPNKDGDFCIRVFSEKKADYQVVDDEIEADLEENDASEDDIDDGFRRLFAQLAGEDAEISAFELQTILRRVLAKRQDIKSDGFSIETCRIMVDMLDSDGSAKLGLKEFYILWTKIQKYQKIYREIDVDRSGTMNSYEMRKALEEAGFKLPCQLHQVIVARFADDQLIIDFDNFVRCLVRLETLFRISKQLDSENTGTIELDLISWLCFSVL

[17] = tested on: Streptococcus sp. 'group A'; experiment: Streptococcus pyogenes SK(-)GAS viability under kanamycin – luminescence, BacTiterGlo, confirmation, counter-screen for streptokinase expression inhibitor project, dose response (AID 1900); assay type: functional, organism-based
Streptococcus = experiment: GAS UMAA2166 growth inhibition – luminescence, BacTiterGlo, counter-screen for streptokinase expression inhibitor project, dose response (AID 1915); assay type: functional, organism-based;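 also: potency for reduction of bacterial viability or growth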
[18] = Luminescence Cell-Based Dose Retest to Confirm Inhibitors of Cancer Stem Cells. [Related pubchem assays (depositor defined):AID2717, AID2721]; assay type: functional; conditions: Homo sapiens
Streptokinase A = biological target: T2, Streptokinase A (Streptococcus pyogenes serotype M1, UniProt P10520); experiment: viability-normalized secreted streptokinase activity reduction – plasminogen activation absorbance, OD405, dose response (AID 1914); assay type: functional, Streptococcus pyogenes M1 GAS;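 also: secreted streptokinase activity via plasminogen activation per viability signal from cell pellet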
T2 sequence (P10520 whole entry): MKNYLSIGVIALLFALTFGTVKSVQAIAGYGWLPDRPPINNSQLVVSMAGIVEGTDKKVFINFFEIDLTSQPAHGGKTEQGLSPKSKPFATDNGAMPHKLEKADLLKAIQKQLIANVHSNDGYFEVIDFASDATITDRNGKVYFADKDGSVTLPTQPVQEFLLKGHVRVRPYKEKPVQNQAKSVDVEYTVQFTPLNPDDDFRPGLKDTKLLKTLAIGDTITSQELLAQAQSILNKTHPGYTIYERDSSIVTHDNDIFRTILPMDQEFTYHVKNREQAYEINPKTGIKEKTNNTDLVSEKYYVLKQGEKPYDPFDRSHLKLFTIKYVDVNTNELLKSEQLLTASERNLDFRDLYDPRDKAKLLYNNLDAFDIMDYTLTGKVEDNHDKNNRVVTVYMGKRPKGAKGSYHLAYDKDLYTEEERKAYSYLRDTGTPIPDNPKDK

Paired box protein Pax-8, sequence (Q06710 whole entry): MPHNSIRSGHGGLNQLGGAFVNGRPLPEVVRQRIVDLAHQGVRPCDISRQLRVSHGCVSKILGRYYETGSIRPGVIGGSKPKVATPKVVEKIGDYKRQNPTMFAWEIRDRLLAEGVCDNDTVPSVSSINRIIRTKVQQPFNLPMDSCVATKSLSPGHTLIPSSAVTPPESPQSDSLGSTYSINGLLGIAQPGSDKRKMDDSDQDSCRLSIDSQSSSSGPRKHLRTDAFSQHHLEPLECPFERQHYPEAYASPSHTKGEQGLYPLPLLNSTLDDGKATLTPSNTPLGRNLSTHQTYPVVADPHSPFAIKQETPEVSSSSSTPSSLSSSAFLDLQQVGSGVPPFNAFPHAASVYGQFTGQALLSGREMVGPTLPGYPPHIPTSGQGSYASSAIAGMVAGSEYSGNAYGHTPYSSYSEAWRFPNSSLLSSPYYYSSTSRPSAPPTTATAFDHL

O=C1C(Cl)=C(NCCCN2CCOCC2)C(=O)N1CCc1ccccc1
EC50 (H4): 45.1 µM (active)
EC50 [1]: 15.3 µM (active)
EC50 [2]: 6.1 µM (active)

Oc1nc(-c2ccccn2)nc(C(F)(F)F)c1Br
EC50 [3]: > 150 µM (inactive)
EC50 [4]: 10.9 µM (active)
EC50 [5]: 1.86 µM (active)
EC50 [6]: 0.596 µM (active)

CCn1c(=O)[nH]c2ccccc2/c1=N/C(=O)c1ccc(F)cc1
CC50 [7]: 28 µM (active)

O=C(O)/C=C/c1ccc(S(=O)(=O)Nc2ccc(C(=O)NCC(=O)O)cc2)cc1
EC50 [3]: > 160 µM (inconclusive)
EC50 [6]: > 38 µM (not active)

CCCCNC(=O)Nc1c(C(=O)OC)[nH]c2ccc(C)cc12
EC50 [8]: 37.7 µM (active)

COCc1nc(-c2ccc(-c3ccc(C)cc3)nc2OC)no1
EC50 (H4): 14.2 µM (active)
EC50 [1]: 76 µM (active)
EC50 [2]: > 120 µM (not active)

Cc1ccccc1N1CCN(Cc2ccc([N+](=O)[O-])o2)CC1
IC50 (cells): 0.73 µM (active)

O=C(Nc1ccc(-c2nc3ccccc3o2)cc1)c1cccnc1
EC50 [8]: 23.3 µM (active)

CC(=O)O[C@@H]1[C@@H](O)[C@@H](O)[C@H](Oc2c(-c3ccc(O)cc3)oc3c(CC=C(C)C)c(O)cc(O)c3c2=O)O[C@H]1C
CC50 [7]: 16.1 µM (active)

CCOc1ccc(NC2=NC(=O)CS2)cc1
CC50 [7]: 24.5 µM (active)

COC(=O)COc1cccc(NC(=O)c2ccc(Cl)cc2)c1
IC50 (cells): 2.8 µM (active)

C/C(=N\NC(=O)c1c(Cl)cnn1C)c1ccc(NC(=O)c2ccc(Br)o2)cc1
EC50 (H4): 28.4 µM (active)
EC50 [1]: 6.56 µM (active)
EC50 [2]: 6.11 µM (active)

CCOC(=O)c1cc2cc3ccccc3cc2oc1=O
IC50 (cells): 10.9 µM (active)

COc1ccc(C(=O)CCc2ccccc2O)c(OC)c1
CC50 [7]: 41.8 µM (active)

CCCOc1cccc(-c2nnc(NC(=O)c3ccco3)s2)c1
EC50 [3]: 15.9 µM (active)
EC50 [6]: 1.91 µM (active)

Cc1ccc(S(=O)(=O)NC(=Nc2ccccn2)c2ccc(Cl)cc2)cc1
EC50 (H4): > 120 µM (not active)
EC50 [1]: 34.8 µM (active)
EC50 [2]: > 120 µM (not active)

N#Cc1cc(-c2ccccc2)[nH]c1-c1nccc2ccccc12
AC50 [9]: 9.62 µM (active)
AC50 [10]: 3.42 µM (active)
AC50 [11]: 48.7 µM (active)

Oc1cccc(Nc2nc(-c3ccccc3)nc3ccccc23)c1
CC50 [7]: 13.3 µM (active)

COc1cc(/C=C2/C(=O)NN(c3ccc(Cl)cc3)C2=O)cc(OC)c1O
EC50 [3]: > 160 µM (inactive)
EC50 [6]: 2.27 µM (inconclusive)

Cc1onc(-c2c(F)cccc2Cl)c1C(=O)NNC(=O)C1CCN(Cc2ccccc2)CC1
EC50 [3]: > 150 µM (inconclusive)
EC50 [6]: > 38 µM (not active)

COc1ccc2nc(N3C(=O)C(O)=C(C(=O)c4ccco4)C3c3ccccc3OC)sc2c1 (centres undefined)
EC50 (H4): 32.4 µM (active)
EC50 [1]: > 120 µM (not active)
EC50 [2]: > 120 µM (not active)

CC(C)(C)c1ccc(C(=O)C2CCCN(Cc3ccon3)C2)cc1 (centres undefined)
EC50 (H4): 17.2 µM (active)
EC50 [1]: 18.3 µM (active)
EC50 [2]: 14.6 µM (active)

COc1ccc(C(=O)Nc2nc3ccc(OC)cc3s2)cc1
CC50 [7]: 21.5 µM (active)

CCCC1=Nc2cc(C(=O)NCCCOC(C)C)ccc2Sc2ccccc21
EC50 (BJ [12]): 17.2 µM (inconclusive)
EC50 (BJ [13]): 9.44 µM (inconclusive)
EC50 [14]: 5.1 µM (active)
EC50 (BJ [15]): 37.8 µM (active)

Cc1cc(=O)oc2c(C)c(OCC(=O)N3CCN(c4cccc(Cl)c4)CC3)ccc12
CC50 [7]: 29.2 µM (active)

Cc1cc(C)nc(Nc2n[nH]c(-c3ccccc3Cl)n2)n1
EC50 (H4): 52.7 µM (inconclusive)
EC50 [1]: 19.8 µM (active)
EC50 [2]: 12.3 µM (active)

CCCCOC(=O)C1CCCC(C(=O)OCCCC)N1 (centres undefined)
IC50 (cells): 16.6 µM (active)

CN1C(=O)/C(=C\C(=O)c2cccs2)c2ccccc21
EC50 [3]: > 150 µM (inconclusive)
AC50 (Paired box protein Pax-8): 23.1 µM (active)
EC50 [6]: > 38 µM (not active)

Cc1cccc(OCCNc2cc(N3CCN(CCO)CC3)ccc2[N+](=O)[O-])c1
CC50 [7]: 15.6 µM (active)

CNc1nccc(-c2ccc(F)cc2)c1C#N
CC50 [7]: 47.5 µM (active)

CCCCCCCCO/C(O)=C1\C(C)=Nc2nnnn2C1c1cccs1 (centres undefined)
IC50 [16]: 3.59 µM (not active)
EC50 [17]: 2.33 µM (active)
EC50 (Streptococcus): 7.3 µM (active)
AC50 [18]: 6.65 µM (active)
EC50 (Streptokinase A): > 50 µM (not active)

CC/C(=C/c1ccccc1)c1cccc2[nH]c3c(OC)cccc3c12
AC50 [9]: 19 µM (active)
EC50 [17]: 1.87 µM (active)
EC50 (Streptococcus): 4.75 µM (active)
AC50 [10]: 32.8 µM (active)
AC50 [11]: > 70 µM (inactive)
EC50 (Streptokinase A): 19.6 µM (active)

CCOc1ccc(NC(=O)C(c2ccccn2)N(C(=O)CCl)c2ccc(OC)cc2)cc1 (centres undefined)
EC50 (BJ [12]): > 150 µM (inconclusive)
EC50 (BJ [13]): > 150 µM (not active)
EC50 [14]: > 150 µM (not active)
EC50 (BJ [15]): > 150 µM (not active)

O=C(Nc1ccc2c(c1)OCCO2)C(=O)c1c[nH]c2ccccc12
EC50 (BJ [12]): 24.5 µM (inconclusive)
EC50 (BJ [13]): 14.2 µM (active)
EC50 [14]: 4.19 µM (inconclusive)
EC50 (BJ [15]): 28.3 µM (active)
AC50 [18]: 0.718 µM (active)

O=C(Oc1ccccc1)c1ccc(COC(=O)c2cnccn2)cc1
IC50 (cells): 6.29 µM (active)

Cc1cc(C(=O)OCC(=O)N2CCc3ccccc32)c(C)o1
EC50 (H4): 13.4 µM (active)
EC50 [1]: 21.6 µM (active)
EC50 [2]: 5.44 µM (active)

CSCCC(NS(=O)(=O)c1ccc(Cl)cc1)C(=O)OCC(=O)N1CCCc2ccccc21 (centres undefined)
IC50 [16]: 14.6 µM (not active)

COc1cc(/C=C2/SC(=S)N(CC(=O)Nc3cccnc3)C2=O)cc(OC)c1OC
EC50 (BJ [12]): > 150 µM (inconclusive)
EC50 (BJ [13]): > 150 µM (not active)
EC50 [14]: > 150 µM (not active)
EC50 (BJ [15]): > 150 µM (not active)

O=C(Oc1ccccc1)c1cc2ccccc2o1
IC50 (cells): 18.4 µM (active)

Cc1cc(Br)ccc1SCC(=O)OCC(=O)c1c(N)n(C)c(=O)n(C)c1=O
IC50 [16]: 10.8 µM (active)

Cc1ccc(-c2ccc([C@H]3[C@@H]4C=CCC[C@@]4(C)C(=O)N3Cc3ccccc3)c(F)c2)cc1
IC50 [16]: 3.65 µM (not active)
AC50 [18]: 3.55 µM (active)

CCOc1ccc2nc(NC(=O)CSc3nc(SC)ns3)sc2c1
EC50 (H4): 47.5 µM (active)
EC50 [1]: 8.43 µM (active)
EC50 [2]: 12.7 µM (active)
